The subject of this assay is B6C3F1 mice, B16 melanoma ip, median survival T/C. Nature of the assay: NCI In Vivo Anticancer Drug Screen. Data for tumor model B16 Melanoma (intraperitoneal) in B6C3F1 mice. The settings on record: endpoint: median survival time, higher = longer survival. A digest of the protocol:
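Mice bearing transplanted tumor were dosed with compound or vehicle, and survival was recorded. Activity is expressed as the treated-group measurement (T) divided by the vehicle control measurement (C).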

The mark [1] stands for this setting: dose: 100.0 mg/kg/injection, schedule: Q01DX009 (ip), vehicle: Klucel (hydroxypropylcellulose) (HPC).
Setting [2] is: dose: 200.0 mg/kg/injection, schedule: Q01DX009 (ip), vehicle: Klucel (hydroxypropylcellulose) (HPC).
Setting [3] is: dose: 1.0 mg/kg/injection, schedule: Q01DX009 (ip), vehicle: saline.
[4] abbreviates: dose: 2.0 mg/kg/injection, schedule: Q01DX009 (ip), vehicle: saline.
The mark [5] stands for this setting: dose: 4.0 mg/kg/injection, schedule: Q01DX009 (ip), vehicle: saline.
The mark [6] stands for this setting: dose: 12.5 mg/kg/injection, schedule: Q01DX009 (ip), vehicle: Klucel (hydroxypropylcellulose) (HPC).
Where [7] appears, read: dose: 25.0 mg/kg/injection, schedule: Q01DX009 (ip), vehicle: Klucel (hydroxypropylcellulose) (HPC).
[8] abbreviates: dose: 50.0 mg/kg/injection, schedule: Q01DX009 (ip), vehicle: Klucel (hydroxypropylcellulose) (HPC).
[9] abbreviates: dose: 12.5 mg/kg/injection, schedule: Q01DX009 (ip), vehicle: saline with Tween-80.
The mark [10] stands for this setting: dose: 25.0 mg/kg/injection, schedule: Q01DX009 (ip), vehicle: saline with Tween-80.
The mark [11] stands for this setting: dose: 50.0 mg/kg/injection, schedule: Q01DX009 (ip), vehicle: saline with Tween-80.
Setting [12] is: dose: 100.0 mg/kg/injection, schedule: Q01DX009 (ip), vehicle: saline with Tween-80.
[13] abbreviates: dose: 12.5 mg/kg/injection, schedule: Q01DX009 (ip), vehicle: saline.
[14] abbreviates: dose: 12.5 mg/kg/injection, schedule: Q01DX009 (ip), vehicle: suspension in saline.
Where [15] appears, read: dose: 25.0 mg/kg/injection, schedule: Q01DX009 (ip), vehicle: saline.
[16] abbreviates: dose: 50.0 mg/kg/injection, schedule: Q01DX009 (ip), vehicle: saline.
Setting [17] is: dose: 100.0 mg/kg/injection, schedule: Q01DX009 (ip), vehicle: saline.
Setting [18] is: dose: 200.0 mg/kg/injection, schedule: Q01DX009 (ip), vehicle: saline.
[19] abbreviates: dose: 6.25 mg/kg/injection, schedule: Q01DX009 (ip), vehicle: Klucel (hydroxypropylcellulose) (HPC).

“And” between values parts separate entries of the source, which are not always exact repeats. Identical values can stand only once. Inconclusive results and toxic doses are left out. Where a SMILES comes first, the peptide text is derived from it. The star is where a group is joined. Cbz = O=C(OCc1ccccc1)*; Bn = c1ccc(C*)cc1

With `CC(C)(C)OC(=O)NC(CCCNC(=O)OCc1ccccc1)C(=O)O` (centres undefined), the T/C reads like this: under setting [1], 110 % of control; under setting [2], 104 % of control; (dose: 400.0 mg/kg/injection, schedule: Q01DX009 (ip), vehicle: Klucel (hydroxypropylcellulose) (HPC)) 98 % of control.

On to `CC(/C=C/C1OC(=O)C=CC1C)=C\C(C)C/C=C/C(C)=C/C(C)C(=O)C(C)C(O)C(C)C/C(C)=C/C(=O)O` (centres undefined), for which the T/C is 170 % of control and 184 % of control (dose: 12.5 micrograms/kg/injection, schedule: Q01DX009 (ip), vehicle: saline + alcohol); 176 % of control and 224 % of control (dose: 25.0 micrograms/kg/injection, schedule: Q01DX009 (ip), vehicle: saline + alcohol).

For the compound `COc1cccc2c1C(=O)c1c(O)c3c(c(O)c1C2=O)C[C@@](O)(/C(CO)=N/NC(=O)c1ccc(Cl)c(Cl)c1)C[C@@H]3OC1CC(N)C(O)C(C)O1` (some centres undefined), the T/C was 188 % of control under setting [3]; 190 % of control under setting [4]; 250 % of control under setting [5]; 267 % of control (dose: 8.0 mg/kg/injection, schedule: Q01DX009 (ip), vehicle: saline); 357 % of control (dose: 16.0 mg/kg/injection, schedule: Q01DX009 (ip), vehicle: saline).

In the case of `CC(C)CC(NC(=O)C(CSCc1ccccc1)NC(=O)OCc1ccccc1)C(N)=O` (centres undefined) (Cbz-Cys(Bn)-Leu-NH2; configuration not given here), the T/C by setting is: under setting [6], 107 % of control; under setting [7], 98 % of control; under setting [8], 100 % of control.

In the case of `CO[C@@]12[C@@H]3N[C@@H]3CN1C1=C(C(=O)C(N3CCCC3)=C(C)C1=O)[C@@H]2COC(N)=O`, the T/C runs as follows: (dose: 3.12 mg/kg/injection, schedule: Q01DX009 (ip), vehicle: saline with Tween-80) 327 % of control; (dose: 6.25 mg/kg/injection, schedule: Q01DX009 (ip), vehicle: saline with Tween-80) 100 % of control.

As for `Nc1ncnc2c1ncn2C1C=C(CO)C(O)C1O` (centres undefined), the T/C by setting is: (dose: 0.5 mg/kg/injection, schedule: Q01DX009 (ip), vehicle: saline) 97 % of control and 106 % of control; under setting [3], 99 % of control and 103 % of control; under setting [4], 102 % of control and 103 % of control; under setting [5], 110 % of control and 105 % of control.

For `C/C=C/C=C1/OC(C)=C(C(C)=O)C1=O`, the T/C is, setting by setting: under setting [9], 99 % of control; under setting [10], 99 % of control; under setting [11], 106 % of control; under setting [12], 98 % of control; (dose: 200.0 mg/kg/injection, schedule: Q01DX009 (ip), vehicle: saline with Tween-80) 109 % of control.

As for `Cn1cnc([N+](=O)[O-])c1Sc1ncn[nH]1`, the T/C under setting [13] was 108 % of control; the T/C under setting [14] was 109 % of control; the T/C under setting [15] is 102 % of control; the T/C (dose: 25.0 mg/kg/injection, schedule: Q01DX009 (ip), vehicle: suspension in saline) was 115 % of control; the T/C under setting [16] was 108 % of control; the T/C (dose: 50.0 mg/kg/injection, schedule: Q01DX009 (ip), vehicle: suspension in saline) was 100 % of control. Moreover, the T/C was 108 % of control under setting [17]; 101 % of control (dose: 100.0 mg/kg/injection, schedule: Q01DX009 (ip), vehicle: suspension in saline); 108 % of control under setting [18]; 102 % of control (dose: 200.0 mg/kg/injection, schedule: Q01DX009 (ip), vehicle: suspension in saline).

On to `CCCCc1ccc2nc(NC(=O)OC)[nH]c2c1`, for which the T/C was 154 % of control under setting [10], 165 % of control under setting [11] and 165 % of control under setting [12].

For the compound `O=C(NC(Cc1cccc(F)c1)C(=O)O)c1ccccc1` (centres undefined), the T/C was 104 % of control (dose: 6.25 mg/kg/injection, schedule: Q01DX009 (ip), vehicle: other); 110 % of control (dose: 12.5 mg/kg/injection, schedule: Q01DX009 (ip), vehicle: other); 99 % of control (dose: 25.0 mg/kg/injection, schedule: Q01DX009 (ip), vehicle: other); 88 % of control (dose: 50.0 mg/kg/injection, schedule: Q01DX009 (ip), vehicle: other).

Turning to `C[C@]12CC[C@@H]3c4ccc(O)cc4CC[C@H]3[C@@H]1CC[C@@H]2O`, the T/C by setting is: under setting [19], 89 % of control; under setting [6], 98 % of control; under setting [7], 90 % of control; under setting [8], 94 % of control; under setting [1], 90 % of control; under setting [2], 89 % of control.

For the compound `O=C1C=CC(=Nc2ccc3c(c2)C(Br)c2ccccc2-3)O1` (centres undefined), the T/C (dose: 5.0 mg/kg/injection, schedule: Q01DX009 (ip), vehicle: saline) was 92 % of control and the T/C (dose: 10.0 mg/kg/injection, schedule: Q01DX009 (ip), vehicle: saline) was 87 % of control.

Consider `O=[n+]1c2c(n([O-])c3ccccc31)-c1cccc3cccc-2c13`, for which the T/C is 99 % of control (dose: 3.12 mg/kg/injection, schedule: Q01DX009 (ip), vehicle: saline); 91 % of control (dose: 6.25 mg/kg/injection, schedule: Q01DX009 (ip), vehicle: saline); 94 % of control under setting [13].

For `Cc1c2cc[n+](CCN3CCCCC3)cc2c(C)c2c1[nH]c1ccc(O)cc12`, the T/C runs as follows: (dose: 6.25 mg/kg/injection, schedule: Q01DX009 (ip), vehicle: suspension in saline) 153 % of control; under setting [14], 204 % of control; under setting [15], 172 % of control and 189 % of control.

Take `C=CCOCC1CO1` (centres undefined): the T/C is 98 % of control and 99 % of control under setting [13]; 111 % of control and 101 % of control under setting [15]; 92 % of control and 103 % of control under setting [16]; 111 % of control and 104 % of control under setting [17]; 111 % of control and 99 % of control under setting [18].

Turning to `COc1cc(C(=O)N/N=C/c2cccc([N+](=O)[O-])c2)cc(OC)c1OC`, the T/C was 88 % of control under setting [9] and 90 % of control under setting [10].

As for `COC(=O)Nc1nc2ccc(SC)cc2c(=O)[nH]1`, the T/C under setting [7] is 96 % of control, the T/C under setting [8] was 101 % of control and the T/C under setting [2] is 114 % of control.

Regarding `COc1cc2c(cc1OC)-c1c3c(cc4c1[C@@H](C2)N(C)CC4)OCO3`, the T/C by setting is: (dose: 6.25 mg/kg/injection, schedule: Q01DX009 (ip), vehicle: distilled water + Tween-80) 98 % of control; (dose: 12.5 mg/kg/injection, schedule: Q01DX009 (ip), vehicle: distilled water + Tween-80) 89 % of control; (dose: 25.0 mg/kg/injection, schedule: Q01DX009 (ip), vehicle: distilled water + Tween-80) 104 % of control; (dose: 50.0 mg/kg/injection, schedule: Q01DX009 (ip), vehicle: distilled water + Tween-80) 92 % of control.

Take `CCCC(C(=O)OCCN1CCCC12CCCCC2)C1CCCC1` (centres undefined): the T/C is 105 % of control under setting [13], 91 % of control under setting [15] and 91 % of control under setting [16].

As to `C[C@@H]1C[C@H]2[C@@H]3CCC4=CC(=O)C=C[C@]4(C)[C@@]3(F)[C@@H](O)C[C@]2(C)[C@@]1(O)C(=O)CO`, the T/C (dose: 3.12 mg/kg/injection, schedule: Q01DX009 (ip), vehicle: Klucel (hydroxypropylcellulose) (HPC)) is 109 % of control; the T/C under setting [19] is 118 % of control; the T/C under setting [6] was 104 % of control.

As to `Nc1nc(Br)nc2c1ncn2C1CC(O)C(CO)O1` (centres undefined), the T/C by setting is: (dose: 7.5 mg/kg/injection, schedule: Q03HX009 (ip), vehicle: saline) 96 % of control; (dose: 15.0 mg/kg/injection, schedule: Q03HX009 (ip), vehicle: saline) 96 % of control; (dose: 30.0 mg/kg/injection, schedule: Q03HX009 (ip), vehicle: saline) 93 % of control; (dose: 60.0 mg/kg/injection, schedule: Q03HX009 (ip), vehicle: saline) 101 % of control.

(Values after PubChem BioAssay AID200 (DTP/NCI, 2004).)
